Laboratory results as given in patent US12064445B2, “Cytarabine conjugates for cancer therapy” (Biosight Ltd., priority 2015, dated 2024).
Like-named read-outs stand apart in the source and are kept apart here.

Columns and labels:
Molt-4 cells = assay: Human leukemia hollow fiber model transplanted in nude mice (Molt-4); format: in vivo; conditions: 7 consecutive days
Procedure: Next, the efficacy of Astarabine® in vivo was studied on a human leukemia (Molt-4 and CCRF-CEM cells) hollow fiber model transplanted in nude mice. Astarabine® was injected at doses of 6.25 mg/mouse/day and 25 mg/mouse/day intraperitoneally (IP), daily, for 7 consecutive days; cytarabine was injected at a dose of 1.5 mg/mouse/day. Leukemia cell growth was measured using the MTT assay as described in Example 1 herein above.

[1] = test system: HL-60 (Human promyelocytic leukemia); assay: MTT assay, IC50 in tumor cell lines; format: cell-based; conditions: HL-60, 72 hr
Procedure: (§1) The effect of Astarabine® on different cell lines was evaluated. Briefly, various cell lines were obtained from ATCC or ECACC. Hematological cells were grown in RPMI medium containing 10-20% FBS and 1% glutamine. Solid tumor cells were grown in DMEM medium containing 10-20% FBS and 1% glutamine. Cells were seeded into 96-well plates, 50,000 cells/ml, 0.2 ml per well. Test substances were diluted in saline or PBS and added in final concentrations of 0.1 nM to 10 μM, in a volume of 20 μl. The study was conducted in triplicates, PBS was used as control. Plates were incubated for 72 hr at 37° C., 5% CO2. At the end of the exposure period, a MTT assay using the MTT reagent [3-(4,5-dimethylthiazol-2-yl)-2,5-diphenyltetrazolium bromide] was performed. MTT was added to each well at a concentration of 5 mg/ml in a volume of 0.02 ml. Plates were incubated at 37° C. for 3 h. The plates were centrifuged at 3500 rpm for 5 minutes and the supernatant was aspired. The pellets which contained MTT crystals were each dissolved in 0.2 ml DMSO. Absorbance was determined using ELISA reader at a wavelength of 570 nm.

[2] = ICR, mouse, in vivo
Procedure: In vivo tolerability/toxicology studies were used to determine the MTD of a single dose of Astarabine® in mice (FIG. 1A) or of 14 daily repeated doses of Astarabine® in mice (FIG. 1B). The MTD was evaluated for intravenous (IV) or intraperitoneal (IP) administration.

[3] = Maximal tolerated dose, repeated dose IP (7 days) in mice; format: in vivo; conditions: for MTD at 7 days: TRC, mouse, in vivo
From the text: All mice were inspected daily during drug administration and recovery period. Clinical evaluation included mobility observations, food and water consumption. […] Hematology and biochemical blood tests were shown normal at the end of the experiment.

[4] = Maximal tolerated dose, single dose IV in mice; format: in vivo
Procedure: IRC mice were injected once IV with Astarabine® in a dose ranging from 1000 to 8000 mg/kg. The mice were evaluated for 14 days. […] The following parameters: clinical signs, body weight, food consumption and blood analysis, were normal for both male and female mice at this dose, i.e., 8000 mg/kg. […] It is therefore concluded that 8000 mg/kg is the MTD of Astarabine® in mice for a single IV administration.

AML and ALL patients = assay: Phase I/IIa open-label clinical study in AML and ALL patients; format: in vivo, human
Procedure: Phase I/IIa, open-label, uncontrolled, single-center study enrolled patients of 18 or more years of age with relapsed or refractory acute leukemia or those unfit for intensive therapy, as judged by the treating physician. The study was approved by the Rambam IRB (approval #0384-11).
Patients were enrolled into 4 Astarabine® escalating dose cohorts, each included 3 patients. Treatment was administered as a 1-hour single daily infusion for 6 consecutive days.
Astarabine® doses for each infusion: • For age ≤50 years: 0.5 g/m^2, 1.5 g/m^2, 3 g/m^2, 4.5 g/m^2 • For age >50 years: 0.3 g/m^2, 0.8 g/m^2, 1.5 g/m^2, 2.3 g/m^2 Results

RPMI8226 (Human myeloma) = assay: MTT assay, IC50 in tumor cell lines; format: cell-based; conditions: RPMI-8226, RPMI8226, 72 hr
Procedure: as §1, with “Test substances were diluted in saline or PBS and added in final concentrations of 0.1 nM to 10 μM, in a volume of 20 μl.” left out

[5] = test system: human leukemia cell lines; assay: Astarabine metabolite assay in human leukemia cell lines; format: cell-based
[6] = patient 1, Refractory AML, 0.3 gr/m^2/day
[7] = patient 2, Refractory AML, 0.3 gr/m^2/day
[8] = patient 3, Refractory AML, 0.5 gr/m^2/day
[9] = patient 4, Secondary AML, 0.8 gr/m^2/day
[10] = patient 5, Secondary AML, 0.8 gr/m^2/day
[11] = patient 6, Refractory AML, 0.8 gr/m^2/day
[12] = patient 8, Secondary AML, 1.5 gr/m^2/day
[13] = patient 9, Secondary AML, 1.5 gr/m^2/day
[14] = patient 10, Relapsed AML, 2.3 gr/m^2/day

N[C@@H](CC(=O)Nc1ccn([C@@H]2O[C@H](CO)[C@@H](O)[C@@H]2O)c(=O)n1)C(=O)O [Astarabine®]
Inhibition of growth of Molt-4 cells (Molt-4 cells; 6.25 mg/mouse/day IP): 76.9% | Inhibition of growth of Molt-4 cells (Molt-4 cells; 25 mg/mouse/day IP): 82.8% | IC50 [1]: 0.256 to 0.276 µM | Reduction of toxicity in animals compared to the reported toxicity of cytarabine [2]: 10-20 fold | Gross necropsy ([3]; IP 7 days, 156 to 781 mg/kg/day): no abnormal findings | Hematology and biochemical blood tests ([3]; IP 7 days, 156 to 781 mg/kg/day, end of experiment): normal | MTD at 7 days ([3]; 781 mg/kg/day IP for 7 days, read-out: Accumulative dose at MTD): 5470 mg/kg | MTD at 7 days ([3]; IP for 7 days, read-out: MTD (maximal tolerated dose)): 781 mg/kg/day | MTD at 14 days ([4]; both sexes, IRC, mouse, in vivo, single IV administration, evaluated for 14 days): 8000 mg/kg | Drug dependent death ([4]; single IV dose 8000 mg/kg): no drug dependent death | Adverse effects during or post therapy (AML and ALL patients; 10 patients, 0.3-2.3 g/m^2/day, 1-hour daily infusion for 6 days, apart from neutropenic fever): No significant adverse effects | Safety and tolerability (AML and ALL patients; even for patients of 80 or more years of age): safe and very well tolerated | Follow-up in months (AML and ALL patients; [6]): 3 months | BM blasts Day 0 (AML and ALL patients; patient 1, Refractory AML, 0.3 gr/m^2/day x 6 days infusion): 100% | BM blasts Day 14 (AML and ALL patients; [6]): 90% | BM blasts Day 30 (AML and ALL patients; [6]): 83% | Follow-up in months (AML and ALL patients; [7]): 2 months | BM blasts Day 0 (AML and ALL patients; [7]): 100% | BM blasts Day 14 (AML and ALL patients; [7]): 64% | BM blasts Day 30 (AML and ALL patients; [7]): 70% | Follow-up in months (AML and ALL patients; [8]): 6 months | BM blasts Day 0 (AML and ALL patients; [8]): 90% | BM blasts Day 14 (AML and ALL patients; [8]): 37% | BM blasts Day 30 (AML and ALL patients; [8]): 60% | Follow-up in months (AML and ALL patients; [9]): 4 months | BM blasts Day 14 (AML and ALL patients; [9]): 39% | BM blasts Day 30 (AML and ALL patients; [9]): 63% | Follow-up in months (AML and ALL patients; [10]): 9 months | BM blasts Day 0 (AML and ALL patients; [10]): 80% | BM blasts Day 14 (AML and ALL patients; [10]): 5% | BM blasts Day 30 (AML and ALL patients; [10]): 0% | Follow-up in months (AML and ALL patients; [11]): 1 months | BM blasts Day 0 (AML and ALL patients; [11]): 85% | BM blasts Day 14 (AML and ALL patients; [11]): 100% | BM blasts Day 30 (AML and ALL patients; [11]): 100% | Follow-up in months (AML and ALL patients; patient 7, ALL, 1.5 gr/m^2/day): 7 months | BM blasts Day 0 (AML and ALL patients; patient 7, ALL, 1.5 gr/m^2/day): 89% | BM blasts Day 14 (AML and ALL patients; patient 7, ALL, 1.5 gr/m^2/day): 3% | BM blasts Day 30 (AML and ALL patients; patient 7, ALL, 1.5 gr/m^2/day): 0.2% | Follow-up in months (AML and ALL patients; [12]): 6 months | BM blasts Day 0 (AML and ALL patients; [12]): 63% | BM blasts Day 14 (AML and ALL patients; [12]): 80% | BM blasts Day 30 (AML and ALL patients; [12]): 8% | Follow-up in months (AML and ALL patients; [13]): 1 months | Outcome (AML and ALL patients; [13]): Died | BM blasts Day 0 (AML and ALL patients; [13]): 100% | Follow-up in months (AML and ALL patients; [14]): 1 months | Outcome (AML and ALL patients; [14]): Died | BM blasts Day 0 (AML and ALL patients; [14]): 100% | Remission (AML and ALL patients; patients having acute leukemia, 0.3-2.3 g/m^2/day for 6 days): three out of ten patients | Safety and tolerability (AML and ALL patients; patients of 75 or more years of age having AML or ALL, daily dose of about 2 g/m^2 or higher): safe and well tolerated | IC50 (RPMI8226 (Human myeloma)): 33.4 to 144 µM | Metabolites detected in cells [5]: detected free cytarabine metabolites
